{"source": "paper doi:10.1101/2024.07.27.605435v1", "about": "“A fluorescent biosensor for the visualization of agmatine” (biorxiv, 2024)", "molecular_target": "T1, PotF (Escherichia coli, UniProt P31133, A182D/S87Y)", "T1 sequence (P31133 27-370 S87Y/A182D)": "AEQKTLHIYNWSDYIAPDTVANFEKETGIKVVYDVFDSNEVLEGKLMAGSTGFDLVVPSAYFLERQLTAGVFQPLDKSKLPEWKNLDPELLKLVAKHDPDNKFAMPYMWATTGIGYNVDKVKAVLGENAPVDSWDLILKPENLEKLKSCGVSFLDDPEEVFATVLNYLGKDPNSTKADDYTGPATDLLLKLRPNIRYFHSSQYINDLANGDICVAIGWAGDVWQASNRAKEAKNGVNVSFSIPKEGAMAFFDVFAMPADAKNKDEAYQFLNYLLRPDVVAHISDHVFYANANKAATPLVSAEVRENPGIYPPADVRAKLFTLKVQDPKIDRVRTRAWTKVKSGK", "assay": "isothermal titration calorimetry; crystal structure of the complex solved here", "assay_type": "binding"}
{"smiles": "N=C(N)NCCCCN", "note": "[agmatine]", "values": [{"measurement": "Kd", "result": 0.3, "unit": "µM"}]}
